The text below walks through data of patent US5294617A, “Angiotensin II receptor blocking 2,3,6 substituted quinazolinones” (American Cyanamid Company, priority 1993, dated 1994).

The target in this test is T1, Angiotensin II Receptor (Bos taurus, UniProt P25104).
T1 construct: The brownish tissue forming the adrenal cortex is scraped off and finely minced with scissors before homogenization; tissue local slaughter house (Maxwell--Cohen); host or cells: beef adrenal cortex, microsomal membranes (100,000×g pellet)
T1 sequence (P25104 1-359): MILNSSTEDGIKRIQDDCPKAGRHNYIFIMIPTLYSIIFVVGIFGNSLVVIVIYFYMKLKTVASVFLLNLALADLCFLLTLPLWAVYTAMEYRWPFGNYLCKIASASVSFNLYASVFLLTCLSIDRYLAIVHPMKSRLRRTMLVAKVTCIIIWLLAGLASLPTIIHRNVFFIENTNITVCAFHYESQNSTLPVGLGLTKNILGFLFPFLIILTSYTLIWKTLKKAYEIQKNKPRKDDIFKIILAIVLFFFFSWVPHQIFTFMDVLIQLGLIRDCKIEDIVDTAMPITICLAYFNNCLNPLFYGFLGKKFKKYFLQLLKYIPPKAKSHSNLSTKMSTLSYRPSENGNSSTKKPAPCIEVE
Nature of the test: Receptor Binding Assay: binding of [125I](Sar1,Ile8)AngII to beef adrenal cortex membranes. The note with it: radioligand, beef adrenal membranes; non-specific with 1.0 uM unlabeled (Sar1,Ile8)AngII. The source says:
[^125 I](Sar^1,Ile^8)AngII, S.A. 2200 Ci/mmole, is purchased from Dupont (NEN®, Boston, Mass.). All unlabeled AngII analogs, Dimethylsulfoxide (DMSO), nucleotides, bovine serum albumin (BSA) are purchased from Sigma Chemical Co., St. Louis, Mo. U.S.A.
Approximately sixteen (16) to twenty (20) beef adrenal glands are processed as follows: fresh adrenal glands received on crushed ice are cleaned of fatty tissues and the tough membranes encapsulating the glands are removed and discarded. The brownish tissue forming the adrenal cortex is scraped off and finely minced with scissors before homogenization. Care is taken to avoid contamination with medullary tissue during dissection. The scraped cortices are suspended in twenty volumes of an ice-cold buffer medium consisting of 10 mM Tris.HCl (pH 7.4 at 22° C.) and containing 1.0 mM EDTA and 0.2M sucrose. Unless otherwise indicated, all subsequent operations are done at 4° C. […] The homogenate is centrifuged first at low speed (3,000×g) for 10 min. […] This P2 pellet is discarded and the liquid phase is carefully decanted off in clean centrifuge tubes and recentrifuged at high speed (100,000×g) for 60 min. The translucent final pellet is harvested and combined in a small volume (20-50.0 ml) of 50.0 mM Tris.HCl buffer, pH 7.2. […] The pelleted membrane is reconstituted in 50.0 mM Tris.HCl buffer containing 0.1 mM of phenylmethylsulfonyl fluoride (PMSF) to give approximately a protein concentration of 2.5 mg per ml of tissue suspension. The membrane preparation is finally aliquoted in 1.0 ml volumes and stored at -70° C. until use in the binding assays.
In competition studies, experimental compounds are diluted in dimethylsulfoxide (DMSO) and added in 20 ul to wells before the introduction of tissue membranes. […] Assays are performed in triplicate. The wells are left undisturbed for 60 min. at room temperature. […] The filters are removed from the filter grid and counted in a Parkard® Cobra Gamma Counter for 1 min. […] The binding data are analyzed by the non-linear interactive "LUNDON-1" program (LUNDON SOFTWARE Inc., Cleveland, Ohio U.S.A.).

As for “[^125 I](Sar^1,Ile^8) AngII [reference compound]”, the Specific binding entry is “greater than 90%”.
